The source of these data is patent US12629357B2, “Treatment of viral infections, of organ injury, and of related conditions using a HIF prolyl hydroxylase inhibitor or a HIF-alpha stabilizer” (Akebia Therapeutics, Inc., priority 2020, dated 2026).

In this assay the test system is hospitalized patients with coronavirus disease 2019 (COVID-19). Briefly: multicenter, randomized, double-blind, placebo-controlled Bayesian adaptive clinical trial for prevention and treatment of ARDS. It is filed as in vivo, human. The source says:
This example describes use of 5-(3-chlorophenyl)-3-hydroxypyridine-2-carbonyl] amino} acetic acid (vadadustat) in a multicenter, randomized, double-blind, placebo-controlled Bayesian adaptive clinical for the prevention and treatment of acute respiratory distress syndrome (ARDS) in hospitalized patients with coronavirus disease 2019 (COVID-19).
Inclusion criteria may include any or all of the following: • 1. Men and women ≥18 years of age. • 2. Laboratory-confirmed diagnosis of COVID-19 by detection of SARS-CoV-2 RNA by RT-PCR (reverse transcription polymerase chain reaction) from any specimen respiratory. • 3. Admitted to the hospital. • 4. Within 24 hours of hospital admission. • 5. Oxygen saturation of hemoglobin by pulse oximetry at room air ≤94%. • 6. Participation in any other clinical trial for the treatment for COVID-19 is not allowed. • 7. Understands the procedures and requirements of treatment and provides written informed consent and authorization for protected health information disclosure.
• 1. Males with hemoglobin >17.5 g/dL or females >15.5 g/dL. • 2. Hypersensitivity to vadadustat or any of its excipients. • 3. Placed on mechanical ventilation before randomization. • 4. Hemoglobin above the gender specific upper limit of normal (ULN) at randomization. • 5. Aspartate aminotransferase (AST), alanine aminotransferase (ALT), or total bilirubin >2.0×ULN at randomization. • 6. Patients who have erythrocytosis or polycethemia vera. • 7. Patients receiving any of the following medications: sulfasalazine or other BCRP substrates, probenecid or other UGT and OAT1/3 inhibitors. • 8. Women who are pregnant or breastfeeding, or positive pregnancy test before randomization. • 9. Patients on maintenance dialysis. • 10. Patients who have received a solid organ transplant. • 11. Patients who are prisoners.
Following screening, patients are randomized in a 1:1 ratio to either vadadustat 900 mg or placebo. Randomination is stratified by site, and MSOFA score at baseline (<4 and ≥4).
A subject may receive vadadustat (e.g., 900 mg vadadustat as 6 tablets once daily) for 14 days and without regard for meals at approximately the same time each day. Tablets can be crushed using a pill crusher and administered to an intubated patient through a nasogastric tube.
For example, the efficacy of vadadustat (e.g., 900 mg per day) for the prevention and treatment of ARDS among COVID-19 patients may be measured by ≥1 point deterioration on the NIAID ordinal scale for clinical improvement at day seven or day 14 of treatment.
Efficacy may also be assessed according to any of the following (including any combination thereof): • 1. The proportion of patients at day 14 who are dead (8) or hospitalized, on invasive mechanical ventilation or ECMO (7) or hospitalized, on non-invasive ventilation or high flow oxygen devices (6) on the NIAID-OS. • 2. Proportions of patients with a score of 0 at 14 days on the MSOFA (Modified Sequential Organ Failure Assessment) scale:
• 3. Average MSOFA scores at day 7 and day 14. • 4. Proportion of patients who develop ARDS or experienced increased ARDS severity from baseline based on the Berlin scale. • 5. Ventilator-free survival at day 7 and day 14. • 6. Overall survival at day 7 and day 14. • 7. Proportion of patients with hypotension (MAP (Mean Arterial Pressure)<70 mm Hg or requirement for inotropes or vasopressors to maintain blood pressure) at day 7 and day 14. • 8. Proportion of patients with acute kidney injury at day 7 and day 14. • 9. Time to hospital discharge.

The mark [1] stands for this setting: vadadustat 900 mg once daily for 14 days compared to placebo, day 7 and day 14.

Molecules are shown by their SMILES.

Turning to `O=C(O)CNC(=O)c1ncc(-c2cccc(Cl)c2)cc1O` [vadadustat, {[5-(3-chlorophenyl)-3-hydroxypyridine-2-carbonyl]amino}acetic acid], under “vadadustat 900 mg once daily for 14 days compared to placebo”, the “proportion of patients who develop ARDS or experienced increased ARDS severity from baseline based on the Berlin scale” value is “a lower or a reduction”. For the same molecule, the “proportions of patients with a score of 0 at 14 days on the MSOFA” value (vadadustat 900 mg once daily for 14 days compared to placebo, 14 days) is listed as “an increase”. Besides, under setting [1], the “average MSOFA scores at day 7 and day 14” value is reported as “a lower or a reduction”; the “number of overall survival at day 7 and day 14” value is “a greater or an increase”; the “number of ventilator-free survival at day 7 and day 14” value is reported as “a greater or an increase”; the “proportion of patients with hypotension (MAP <70 mm Hg or requirement for inotropes or vasopressors to maintain blood pressure) at day 7 and day 14” value is given as “a lower or a reduction”. Further, where the note is “vadadustat 900 mg once daily for 14 days versus placebo”, the “time to hospital discharge” value was “a shorter or a reduction”. Also, the “proportion of patients with acute kidney injury at day 7 and day 14” value (vadadustat 900 mg once daily for 14 days versus placebo, day 7 and day 14) is “a lower or a reduction”.
